Source: patent US10111880B2, “Compounds for the treatment of diabetes and disease complications arising from same” (BEN-GURION UNIVERSITY OF THE NEGEV RESEARCH AND DEVELOPMENT …, priority 2013, dated 2018)
Entries after “also recorded” stand apart in the source; their conditions may differ.

Assays:
[1] = system: islets isolated from ICR mice; assay: γ-H2AX staining in isolated islet cells treated with STZ; format: cell-based, mouse; conditions: STZ 1.5 mM; AGS-500 50 nM, 100 nM, 250 nM; 4 hours
Description: Islets were isolated from 8-10-week-old ICR mice. 30 islets in each group were treated with STZ (1.5 mM) and DMSO or AGS-500 in various concentrations (50 nM, 100 nM, 250 nM) for 4 hours. After 4 h incubation, the islets were enzymatically separated to single cells, cyto-spun and stained with γ-H2AX-specific antibody (A; representative picture—γ-H2AX (light grey), Dapi (dark grey)). Magnification: ×60.
The treatment of rats with AGS-compounds maintained a large β-cell mass in STZ-treated rats. In order to determine whether β-cell mass preservation was a result islet cell protection from STZ-induced DNA damage, γ-H2AX staining was assessed. Phosphorylated gamma H2AX (γ-H2AX) is essential for recognition and repair of DNA double strand breaks. H2AX histone becomes rapidly phosphorylated at its carboxyl terminus to form the so-called γ-H2AX at double strand break sites.
Islets were isolated from 8-10-week-old ICR mice and were treated with STZ (1.5 mM) and DMSO or AGS-500 in various concentrations (50 nM, 100 nM, 250 nM) for 4 hours. After a 4 h incubation, the islets were separated into single cells, cyto-spun, and stained with anti-γ-H2AX-specific antibody for the detection of DNA double strand breaks (FIG. 6).

[2] = system: STZ-induced diabetic ICR mice; assay: Blood glucose over time in STZ mice, short course (2 weeks) AGS treatment with or without insulin; format: in vivo, mouse
Description: (§1) Eight weeks-old female ICR mice were injected intraperitoneally (IP) with Streptozotocin (STZ), at a dose of 40 mg/Kg, for 5 consecutive days. The following day and onward, mice were administered the AGS compounds (499 or 500, as indicated), at a dose of 6 mg/Kg, either subcutaneously or orally, every other day. Blood glucose levels were monitored daily.
(§2) After the establishment of diabetes (i.e. three consecutive blood glucose measurements of >200 mg/dL), mouse groups were further sub-divided into 2 sub-groups, one of each received insulin (gradual administration of 0.5-6 units/Kg, over a period of 2 weeks) subcutaneously, every other day. Blood glucose levels were monitored daily.

[3] = system: insulin expressing beta islets; assay: Immunofluorescence of pancreatic slices with anti-insulin antibody, insulin expressing beta islets in mice; format: in vivo, mouse
Description: The light grey (originally red) stains insulin producing cells, and the darker grey (originally blue) is for DAPI staining. Density of insulin staining per area was measured using “Image J” software (D-E). The results are mean±S.E.; n=4. ***p<0.005. Magnification: ×10.

[4] = system: STZ-induced diabetic ICR mice; assay: Glucose Tolerance Test (GTT) in STZ diabetic mice after 2 and 5 months; format: in vivo, mouse; conditions: for Improvement (fold): GTT after 2 months; for Fold of Improvement: GTT after 5 months; for Time needed for the Pancreas to cope glucose load after 5 months / Time needed for the Pancreas to cope with glucose load after 2 months: GTT
Description: Glucose Tolerance Test: Animals were fasted for 12 hr with free access to water. Blood-glucose levels after fast were measured and then the animals received an i.p. injection of glucose (1.5 g/kg). Blood samples were taken at several intervals (for the duration of 2 hr), when glucose levels above 200 mg/dl at 2 hr confirmed a diagnosis of diabetes.
[…] Mice were subjected to 12 hours fast (with water) weighed, blood glucose level was measured and Glucose at 1.5 gr/kg in no more than 100 μl was injected IP. Blood glucose levels were measured at 10, 20, 30, 60, 90 and 120 min after glucose injection. glucose tolerance test.

[5] = system: STZ-induced diabetic ICR mice; assay: Glucose tolerance test in STZ mice after short course (2 weeks) AGS treatment; format: in vivo, mouse
Description: as §1, §2
Glucose tolerance tests were also performed as follows: After two weeks mice were fasted for 12 hours, then injected with D-glucose (1.5 g/Kg, IP) and blood glucose levels were examined at 0, 10, 20, 30, 60, 90 and 120 minutes, in order to evaluate pancreatic function.

[6] = system: STZ-induced diabetic Wistar rats; assay: Blood glucose in STZ-induced diabetic rats treated with AGS-500; format: in vivo, rat
Description: The effect of compounds of the present invention on diabetes per se, and disease complications arising as a result of diabetes was evaluated. Streptozotocin treatment of mice and rats are known in vivo diabetes models. Intraperitoneal injections of reduced STZ concentrations (35 mg/kg) was evaluated in mice and rats, in order to determine whether in a model causing only partial damage to pancreatic islet β-cells, whether the compounds of this invention would be helpful. Eight-week-old Wistar female rats received two doses of STZ administered intraperitoneally (60 or 35 mg/kg in 0.1M Citrate buffer; at 5-day intervals), which induced diabetes in all animal, since not all rats that received a single injection of STZ became diabetic in this model. These animals were then treated every 3 days with a subcutaneous injection of compound AGS-500 (6 mg/kg) for from 2-5 weeks to generate a Type I Diabetes phenotype. Blood glucose levels were monitored every 3 days in the rats. Ten weeks after the beginning of this study, each mice group was divided into 2 sub-groups, one of each also received insulin (4 U\Kg) every 2 days, except for the non-diabetic sub-groups. Acetic acid (1%) served as the vehicle control. Diabetes was diagnosed when non-fasting blood glucose levels were above 200 mg/dl. Extension of these studies included treatment of rats divided into 4 groups, as follows: 3 groups received 2 injections of STZ (35 mg/kg) at day 0′ and day 15′, serving as the diabetic group, while the non-diabetic group received 2 injections of Citrate buffer in accordance with the stated schedule. One diabetic group was administered AGS-500 intraperitoneally (6 mg/kg) every 12 hours (12 h) starting at day 4′, the second diabetic group received DMSO every 12 h starting at day 4′, and a third diabetic group was not injected with either AGS-500 or DMSO.

[7] = system: pancreatic β-cells; assay: Insulin immuno-histochemical and immuno-fluorescence staining of pancreas, β-cell mass in STZ-injected rats; format: in vivo, rat; conditions: FIG. 5A, 5B, 5D
Description: Rats were treated as described in Example 1, pancreata were removed fixed in 4% formalin, and embedded in paraffin for immuno-histochemical and immuno-fluorescence staining using a specific anti-insulin antibody and serial histopathologic sections were prepared. […] Brown staining in FIG. 5A indicates insulin staining positivity by immunohistochemistry, and red staining (FIGS. 5B and 5C) indicates insulin staining positivity by immunofluorescence, blue cellular staining was effected with Dapi). The Cell density and density of insulin staining per area was measured using “Image J” software (FIGS. 5D and 5E). The results are presented as mean±S.E.; n=4. ***p<0.005.

[8] = STZ rats, AGS-500 6 mg/kg s.c. every 3 days

CC(c1cc(Br)c(O)c(Br)c1)(c1cc(Br)c(O)c(Br)c1)c1cc(Br)c(O)c(Br)c1 [AGS-500, 1,1,1-tris (4-hydroxy-3,5-dibromo-phenyl)-ethane]
number of γ-H2AX-stained cells [1]: dose-dependent decrease in the number of γ-H2AX-stained cells; also recorded: Reduced γ-H2AX Staining | circulating glucose levels over time ([2]; 6 mg/Kg every other day, short course (2 weeks), FIG. 13-1): lowering circulating glucose levels significantly | circulating glucose levels over time, combined with insulin therapy ([2]; short course, insulin 0.5-6 units/Kg, FIG. 13-2): synergistic contribution | β-cell Mass in STZ-injected mice ([3]; immunofluorescence, FIG. 5C): preserved β-cell Mass | No of insulin expressing beta islets/mouse ([3]; no insulin, daily): 5.6 | increase in Insulin expressing Beta islets ([3]; no insulin, daily): 215% | No of insulin expressing beta islets/mouse ([3]; no insulin, every 48 hrs): 5 | increase in Insulin expressing Beta islets ([3]; no insulin, every 48 hrs): 192% | No of insulin expressing beta islets/mouse ([3]; with insulin, AGS daily): 2.5 | No of insulin expressing beta islets/mouse ([3]; with insulin, AGS every 48 hrs): 3 | increase in Insulin expressing Beta islets ([3]; with insulin, AGS every 48 hrs): 115% | Improvement (fold) ([4]; daily): 1.5 fold | Improvement (fold) ([4]; every 48 hrs): 3 fold | Fold of Improvement ([4]; daily): 3 fold | Fold of Improvement ([4]; every 48 hrs): normal | Time needed for the Pancreas to cope glucose load after 5 months ([4]; daily): 30 min | Time needed for the Pancreas to cope with glucose load after 2 months ([4]; daily): 60 min | Time needed for the Pancreas to cope glucose load after 5 months ([4]; every 48 hrs): 20 min | Time needed for the Pancreas to cope with glucose load after 2 months ([4]; every 48 hrs): 30 min | GTT test performed after 5 months ([4]; treatment every 48 hours, FIG. 4): significant improvement in the GTT test | mean blood glucose levels in a glucose tolerance test ([5]; 6 mg/Kg subcutaneously or orally every other day, FIG. 11): reduced mean blood glucose levels | effect of adding insulin on circulating glucose levels in a glucose tolerance test ([5]; AGS subcutaneously (AGS500 also orally), FIG. 12): adding insulin did not appreciably lower the circulating levels | Blood glucose levels [6, 8]: 275 ± 18 mg/dL | effect on the rat hyperglycemic state [6, 8]: no effect | blood glucose levels of non-fasting animals ([6]; rats, STZ 35 mg/kg day 0 and 15, AGS-500 6 mg/kg i.p. every 12 h from day 4, FIG. 1A): No reduction | fasting glucose levels (following 12 h fast) ([6]; rats, STZ 35 mg/kg day 0 and 15, AGS-500 6 mg/kg i.p. every 12 h from day 4, FIG. 1B): significant reduction of blood glucose levels to normal; also recorded: Reduction in Blood Glucose Level | β-cell mass in the pancreas of STZ-injected rats [7]: significantly larger β-cell mass; also recorded: preserved β-cell Mass
